Data as given in patent US10016373B2, “CB2 receptor ligands for the treatment of psychiatric disorders” (priority 2013, dated 2018).
Read-outs that look alike come from different tables or passages of the source.

Columns and labels:
Format in all cases: in vivo
[1] = system: mice
Procedure: For the treated mice, one of the two CB2 receptor-selective agonist solutions: either CB2 agonist2 solution or H-308 solution, was administered by intravenous administration to mice pups to induce ADHD-like behavior and/or obsessive-compulsive-like behavior as a murine model for ADHD and OCD. […] In order to test the effect of non-agonist or mixed-type agonist/inverse agonist CB2 receptor ligands on hyperactivity, the effects of M1 were studied.
Open-Field Test (Crossing and Rearing, Defecation, Grooming)
Mice were assessed for hyperactive behavior on postnatal days 16-20, 26-39, at age 13 weeks and at age 23 weeks. Mice were placed in the center of a transparent glass cage 30×40×31 cm divided into squares of 7.5×7.5 cm. The number of squares crossed and the rearing activity were evaluated for 8 min.

[2] = system: mice; assay: Prepulse inhibition (PPI) of the startle reflex
Procedure: Attention Test: Prepulse Inhibition (PPI) of the Startle Reflex
A weak audible stimulus (74-90 dB tone) “prepulse” was used to inhibit the acoustic startle response to a subsequent strong audible stimulus (120 dB tone) “pulse”. Reduced prepulse inhibition of the startle reflex (PPI) was taken as an index of the positive symptoms of deficits in attention.
PPI was assessed similarly to the method described by Varty et al. (2001). Mice were placed in a startle chamber and allowed to acclimatize for 5 minutes A loudspeaker produced startling “pulse” at 120 dB and thereafter 65 dB background white noise or one of […] 20 ms duration “prepulses” at 74, 78, 82, 86, and 90 dB followed after 20 ms by a 40 ms startling “pulse” at 120 dB. The response of each mouse was recorded and stored by a computer. Each test session lasted for 11 minutes and consisted of 5 presentations of each of the prepulse/pulse sound stimuli (total of 30 or 35) presented in random order and separated by 15 second intervals. The magnitude of prepulse inhibition was calculated as percentage PPI=[1-(acoustic startle for prepulse+pulse)/(acoustic startle for pulse alone)]×100.

[3] = system: mice; assay: Impulsivity, Elevated Plus Maze; details: age 13 weeks, postnatal CB2 agonist2 5 mg/kg
Procedure: The treatment consisted of a single intravenous administration of the vehicle or the M1 solution Impulsivity was tested 24 hours after treatment.
Impulsivity as measured by the paucity of time spent on the two anxiety-provoking, open arms (as opposed to the two enclosed arms) of an “Elevated Plus Maze” was used as a parameter of negative symptoms of schizophrenia (Josselyn and Vaccarino, 1998). The plus maze was elevated 50 cm above the table top. Behavior of each mouse was recorded for 5 minutes by a video camera and scored using the “EthoVision” software (Noldus), measuring the number of entries as well as the amount of time spent in each arm, open or closed. Reduced time spent in the closed arms indicated reduced anxiety. Increased time spent in the opened arms indicated increased risk behavior (hyperactive and impulsive).
The treatment consisted of a single i.p. administration of the vehicle or the M1 solution. The duration ratio open arm/close arm and the frequency ratio open arm/close arm in the Elevated Plus Maze were evaluated 24 hours after treatment with either vehicle or M1.

[4] = system: mice; assay: Vocal tics, ultrasonic voice recording
Procedure: Mice were recorded at the age of 13 or 23-25 weeks with an ultrasonic voice recorder (Noldus). Mice were recorded at the age of 29 days with an ultrasonic voice recorder (AviSoft). Single mice were recorded in a cage for 10 min (according to sex and type of treatment). The number and duration of events at 20-40 kHz and at 50-70 kHz were analyzed. In some experiments, 24 h following M1 treatment, each mouse was recorded for 10 min before and after stress. Stress was induced by incubation for 10-15 min in a mouse restrainer.

[5] = system: mice; assay: Motor tics in the open field test

C=C1CC/C=C(\C)CC[C@@H]2[C@@H]1CC2(C)C [CB2 agonist2, beta-caryophyllene]
grooming ([1]; CB2 agonist2 0.5 mg/kg at the age of 3-15 days, M1 5 mg/kg on day 29, measured on day 39, stressed female mice, FIG. 13A): increased
feces secretion ([1]; CB2 agonist2 0.5 mg/kg at the age of 3-15 days, M1 5 mg/kg on day 29, measured on day 39, stressed female mice, FIG. 13B): increased
rearing ([1]; CB2 agonist2 0.5 mg/kg at the age of 3-15 days, M1 on day 29, measured on day 36, unstressed female mice, FIG. 12A): increased
ambulation ([1]; CB2 agonist2 0.5 mg/kg at the age of 3-15 days, M1 on day 29, measured on day 39, stressed female mice, FIG. 12B): increased
ambulation ([1]; CB2 agonist2 0.5 mg/kg at the age of 3-15 days, measured on day 26, unstressed females, FIG. 11A): increased
rearing ([1]; CB2 agonist2 0.5 mg/kg at the age of 3-15 days, measured on day 26, unstressed females, FIG. 11C): increased
ambulation ([1]; model mice 5 mg/kg CB2 agonist2 postnatal days 1-5, M1 5 mg/kg single i.p. at 13 weeks, 30 minutes after treatment, FIG. 5A): increase
rearing ([1]; model mice 5 mg/kg CB2 agonist2 postnatal days 1-5, M1 5 mg/kg single i.p. at 13 weeks, 30 minutes after treatment, FIG. 5B): increase
secretion of feces ([1]; model mice 5 mg/kg CB2 agonist2 postnatal days 5-13, M1 5 mg/kg single i.p. at 23 weeks, FIG. 4C): decreased
grooming duration ([1]; model mice 5 mg/kg CB2 agonist2 postnatal days 5-13, M1 5 mg/kg single i.p. at 23 weeks, tested 48 hours after treatment, FIG. 4A): increased
grooming frequency ([1]; model mice 5 mg/kg CB2 agonist2 postnatal days 5-13, M1 5 mg/kg single i.p. at 23 weeks, tested 48 hours after treatment, FIG. 4B): increased
ambulation ([1]; open field test at postnatal days 16-19, 5 mg/kg CB2 agonist2 at postnatal days 5-13, FIG. 1A): increased
rearing ([1]; open field test at postnatal days 16-19, 5 mg/kg CB2 agonist2 at postnatal days 5-13, FIG. 1B): increased
ambulation ([1]; open field test at postnatal days 16-19, 10 mg/kg CB2 agonist2 at postnatal days 5-13, FIG. 1C): increased
rearing ([1]; open field test at postnatal days 16-19, 10 mg/kg CB2 agonist2 at postnatal days 5-13, FIG. 1D): increased
percent pre-pulse inhibition ([2]; female mice treated with CB2 agonist2 at postnatal days 5-13, FIG. 3B): decreased
acoustic startle ([2]; model mice vs control mice at the age of 8 weeks, FIG. 3A): not significantly different
ratio of duration in the open arm/close arm ([3]; females, FIG. 6A): increased
ratio of duration in the open arm/close arm ([3]; males+females, FIG. 6B): increased
number of vocal events ([4]; 20-40 KHz, day 29, female mice, CB2 agonist2 0.5 mg/kg at the age of 3-15 days, M1 5 mg/kg on day 29, FIG. 14A): increased
duration of vocals ([4]; 20-40 KHz, day 29, female mice, CB2 agonist2 0.5 mg/kg at the age of 3-15 days, M1 5 mg/kg on day 29, FIG. 14B): increased
number of vocal events ([4]; female mice 23-25 weeks, 20-40 KHz, stress, CB2 agonist2 5 mg/kg postnatal days 5-13, M1 given to model mice, FIG. 7A): increased
total duration of vocal events ([4]; female mice 23-25 weeks, 20-40 KHz, stress, CB2 agonist2 5 mg/kg postnatal days 5-13, M1 given to model mice, FIG. 7B): increased
mean duration of vocal events ([4]; female mice 23-25 weeks, 20-40 KHz, stress, CB2 agonist2 5 mg/kg postnatal days 5-13, M1 given to model mice, FIG. 7C): increased
number of vocal events ([4]; female mice 23-25 weeks, 50-70 KHz, stress, CB2 agonist2 5 mg/kg postnatal days 5-13, M1 given to model mice, FIG. 8A): increased
total duration of vocal events ([4]; female mice 23-25 weeks, 50-70 KHz, stress, CB2 agonist2 5 mg/kg postnatal days 5-13, M1 given to model mice, FIG. 8B): increased
mean duration of vocal events ([4]; female mice 23-25 weeks, 50-70 KHz, stress, CB2 agonist2 5 mg/kg postnatal days 5-13, M1 given to model mice, FIG. 8C): increased
total duration of vocal events ([4]; male mice 23-25 weeks, 20-40 KHz, before stress, CB2 agonist2 5 mg/kg postnatal days 5-13, M1 given to model mice, FIG. 9A): increased
mean duration of vocal events ([4]; male mice 23-25 weeks, 20-40 KHz, before stress, CB2 agonist2 5 mg/kg postnatal days 5-13, M1 given to model mice, FIG. 9B): increased
total duration of vocal events ([4]; male mice 23-25 weeks, 50-70 KHz, before stress, CB2 agonist2 5 mg/kg postnatal days 5-13, M1 given to model mice, FIG. 10A): increased
mean duration of vocal events ([4]; male mice 23-25 weeks, 50-70 KHz, before stress, CB2 agonist2 5 mg/kg postnatal days 5-13, M1 given to model mice, FIG. 10B): increased

CCCCCCC(C)(C)c1cc(OC)c([C@@H]2C=C(CO)[C@@H]3C[C@H]2C3(C)C)c(OC)c1 [HU-308, [(1R,2R,5R)-2-[2,6-dimethoxy-4-(2-methyloctan-2-yl)phenyl]-7,7-dimethyl-4-bicyclo[3.1.1]hept-3-enyl]methanol]
hyperactivity ([1]; age of 3 months, 0.1 mg/kg HU-308, M1 5 mg/kg in gavage 30 minutes before the experiment, FIGS. 17A-B): induced
ambulation ([1]; open field test at postnatal days 16-19, 5 mg/kg HU-308 at postnatal days 5-13, FIG. 2A): increased
rearing ([1]; open field test at postnatal days 16-19, 5 mg/kg HU-308 at postnatal days 5-13, FIG. 2B): increased
percent pre-pulse inhibition ([2]; female mice injected with HU-308 at postnatal days 5-13, FIG. 3D): decreased
percent pre-pulse inhibition ([2]; male mice injected with HU-308 at postnatal days 5-13, FIG. 3C): decreased
abnormal motor tics/head twitches ([5]; HU-308 5 mg/kg during postnatal days 5-13, age of 12 weeks, open field test): induced
Number of tics, Total ([5]; HU-308 5 mg/kg postnatal days 5-13, age 12 weeks, total over the recording): 18
